{
  "source": "patent US11124479B2",
  "about": "“Oligopyrroles as antagonists of islet amyloid polypeptide oligomerization” (New York University, priority 2017, dated 2021)",
  "key": {"[1]": {"target": "T1, islet amyloid polypeptide (IAPP) (Homo sapiens, UniProt P10997)", "T1 construct": "IAPP is a 37 residue neuropancreatic hormone peptide; purchased Anaspec (Fremont, Calif.)", "T1 sequence (P10997 34-70 limits assumed)": "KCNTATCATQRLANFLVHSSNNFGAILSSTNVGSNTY", "assay": "Transmission electron microscopy (TEM) of IAPP fibers", "settings": "10 μM IAPP, equimolar ratio", "protocol": "[…] Aliquots of these samples were then applied to glow-discharged carbon-coated 300-mesh copper grids for 2 min and dried. Grids were negatively stained with uranyl acetate (2%, w/v) and dried. Micrographs of grids were examined on a Phillips CM12 Cryoelectron Microscope equipped with Gatan 4 k×2.7 k CCD camera at 120-kV accelerating voltage."}, "[2]": {"target": "T1, islet amyloid polypeptide (IAPP)", "assay": "Circular dichroism (CD) spectroscopy of IAPP conformation", "settings": "for IAPP conformation by CD: 15 μM IAPP, equimolar ratio", "protocol": "A freshly prepared stock solution of IAPP (500 μM in water) was diluted to 15 μM in phosphate buffer for CD measurements. The spectra of IAPP were recorded at 0.5 nm intervals from 190 to 260 nm with an averaging time of 10 sec. and an average of three repeats on an Aviv Stopped Flow CD Spectropolarimeter (Model 202SF). Spectra were recorded using the identical method as described above. ADH-101 was added to the solution of IAPP at an equimolar ratio. […]"}, "[3]": {"target": "T1, islet amyloid polypeptide (IAPP)", "assay": "PICUP SDS-PAGE silver staining of IAPP oligomerization", "format": "biochemical", "settings": "15 μM IAPP, equimolar ratio, up to 300 min", "protocol": "The effect of ADH-101 on the oligomerization of IAPP was evaluated using performance photo-induced cross-linking of unmodified proteins (PICUP) SDS-PAGE-silver staining as described in Ono, K.; Condron, M. M.; Teplow, D. B. Proc. Natl. Acad. Sci. U.S.A. 2009, 106, 14745-14750 (FIG. 2E). IAPP was incubated in a buffer in the presence and absence of ADH-101 at an equimolar ratio, and the solutions were then treated with the cross-linking agent at various time intervals (FIG. 2E). IAPP forms oligomers of varying sizes as a function of time (FIG. 2E, Lane i-iv). […] Without wishing to be bound by any theory, it is postulated that ADH-101 forms a complex with monomeric IAPP and abolishes the oligomerization of IAPP."}, "[4]": {"target": "T2, IAPP-induced lipid membrane leakage (Homo sapiens, UniProt P10997)", "T2 construct": "IAPP is a 37 residue neuropancreatic hormone peptide; purchased Anaspec (Fremont, Calif.)", "T2 sequence (P10997 34-70 limits assumed)": "T1 sequence (P10997 34-70 limits assumed)", "assay": "Fluorescein-based liposome leakage assay", "format": "biochemical", "description": "Colocalization of IAPP at the mitochondrial membrane and the subsequent membrane poration is considered to be one of the potential contributors to β-cell toxicity. Therefore, a liposome leakage assay could serve as a surrogate marker for IAPP induced cytotoxicity (see Last, N. B.; Miranker, A. D. Proc. Natl. Acad. Sci. U.S.A. 2013, 110, 6382-6387; and Last, N. B.; Rhoades, E.; Miranker, A. D. Proc. Natl. Acad. Sci. U.S.A. 2011, 108, 9460-9465). A previously reported fluorescein-based liposome leakage assay was employed to test the effect of ADH-101 on membrane associated α-helical intermediates of IAPP. Briefly, fluorescein-dextran conjugate (MW=70 kDa) was encapsulated in unilamaller extruded lipid vesicles (DOPG:DOPC, 3:7, d=100 nm). The size of fluorescein-dextran conjugate allows it to stay inside the lipid vesicles during IAPP mediated membrane poration. The leakage kinetics was probed by the quenching of fluorescence using a fluorescent quencher, DPX (p-xylene-bis-pyridinium […]). The kinetic profiles of leakage are single exponential with a decrease in fluorescence as a function of time. The leakage reaction was initiated by introducing 200 μM liposome into a solution of 4 μM IAPP and 6 mM of DPX. The introduction of the excess ionic concentration by DPX was counterbalanced by adjusting the buffer concentration. The kinetics of the leakage mediated by IAPP yielded a single exponential profile with a leakage rate of 7.3±1.1×10^−3 s^−1 (FIG. 5A).\nThe kinetics of liposome leakage induced by IAPP was monitored on QuantaMaster C-61 fluorescence spectrometer (Photon Technology International, Edison, N.J.) at 25° C. […] The stock solution of IAPP used in the measurements was kept in water at a concentration of 1 mM. The stock solution of water soluble quencher, DPX (p-xylene-bis-pyridinium bromide) was prepared in buffer (100 mM KCl, 50 mM NaPi, pH 7.4) at a concentration of 100 mM. The small molecules used in the leakage assay were dissolved in DMSO with a concentration range of 10-20 mM. The final concentration of dye encapsulating liposome, DPX, human IAPP, and small molecules were 200, 6000, 4, and 4 μM respectively. The final buffer concentration was corrected using higher concentration of buffer to keep the osmolality balanced. […] To determine the leakage rate constant, first the fluorescence was normalized and corrected by subtracting it from normalized fluorescence of control reaction. The corrected fluorescence was fit using equation given below (using Origin 9.1). All the experiments were performed in triplicate and the error values presented are standard deviations. a*exp(−b*x)+c (2) a=amplitude from 100% unleaked to 0% leaked c=final fraction of unleaked liposome y=change in fluorescence b=leakage rate constant"}, "Partition coefficient": {"assay": "Partition coefficient", "format": "physicochemical"}, "[5]": {"assay": "Self-aggregation by UV, centrifugation and DLS", "format": "physicochemical", "description": "ADH-101 contains hydrophobic and negatively charged groups and presents a possibility for self-aggregation. It has been shown that the small molecules with self-aggregation tendencies can inhibit amyloid formation in a non-specific manner. Therefore, UV, centrifugation, and DLS were used to explore the self-aggregation properties of ADH-101 (FIG. 12A)."}, "[6]": {"target": "T1, islet amyloid polypeptide (IAPP)", "assay": "ThT-based kinetic assay of IAPP fibrillation", "format": "biochemical"}},
  "data": [
    {"smiles": "CCOC(=O)c1cc(NC(=O)c2cc(NC(=O)c3cc([N+](=O)[O-])cn3CC(C)C)cn2CC(C)C)cn1CCC(=O)O", "note": "[ADH-101]", "values": [
      {"measurement": "fiber formation by TEM", "setting": "[1]; 12 hours", "value": "no formation of fibers"},
      {"measurement": "fiber formation by TEM", "setting": "[1]; 24 h", "value": "formation of amorphous fibers"},
      {"measurement": "IAPP conformation by CD", "setting": "[2]; phosphate buffer, after 8 hours", "value": "no β-sheet conformation was observed"},
      {"measurement": "conformation induced in IAPP", "setting": "[2]; FIG. 3B", "value": "induces an α-helical conformation"},
      {"measurement": "induced CD signal around 340 nm", "setting": "[2]; incubated with IAPP at equimolar ratio", "value": "positive induced CD signal"},
      {"measurement": "IAPP conformation by CD", "setting": "[2]; lipid membrane (600 μM DOPG:DOPC 3:7), after 1 hour", "value": "stays in an α-helical state"},
      {"measurement": "IAPP oligomerization (PICUP)", "setting": "[3]", "value": "completely inhibits the formation of large aggregates"},
      {"measurement": "leakage rate slower than the control reaction (IAPP only)", "setting": "[4]; 4 μM IAPP, 4 μM compound, 200 μM liposome", "value": "~3.5", "unit": "times"},
      {"measurement": "effect on the integrity of the liposomes", "setting": "[4]; ADH-101 alone, 4 μM, no IAPP", "value": "did not have any effect"},
      {"measurement": "logP", "setting": "Partition coefficient", "value": 2.2},
      {"measurement": "diameter of species by DLS", "setting": "[5]; 50 μM, 150 mM KCl, 50 mM NaPi, pH 7.4", "value": "less than 10 nm"},
      {"measurement": "concentration up to which the compound did not self-assemble", "setting": "[5]; phosphate buffer, UV and centrifugation", "value": "> 40", "unit": "µM"},
      {"measurement": "inhibition of IAPP fibrillation when added during the lag phase, compared to premixed (t=0 h)", "setting": "[6]; added at 1 h and 3 h, equimolar ratio, 10 μM IAPP", "value": "equally effective"},
      {"measurement": "effect on IAPP amyloid fibers (ThT fluorescence)", "setting": "[6]; added to the fibers", "value": "no effect"},
      {"measurement": "factor of delay of IAPP amyloid kinetics", "setting": "[6]; cholesterol-containing LUVs (30% cholesterol), 15 μM IAPP, equimolar ratio", "value": 3.6}
    ]}
  ]
}
